Laboratory results from the NIST ThermoML archive (doi:10.1021/je050202g).
± gives the expanded uncertainty stated by the source.

What was measured:
[1] = cn = amount concentration of the nth substance listed, in mol/dm3; conditions: 101.3 kPa, Liquid; for viscosity: Capillary tube (Ostwald / Ubbelohde) method
[2] = wn = mass fraction of the nth substance listed; conditions: Wilhelmy Plate method
[3] = Wilhelmy Plate method

C1CNCCN1 [piperazine] + O
viscosity ([1]; 293.15 K, c1 = 0.623): 1.26 ± 0.04 mPa·s
viscosity ([1]; 293.15 K, c1 = 1.006): 1.52 ± 0.05 mPa·s
viscosity ([1]; 293.15 K, c1 = 1.49): 1.87 ± 0.06 mPa·s
mass density ([1]; 293.15 K, c1 = 0.623): 1000.46 ± 2.5 kg/m3
mass density ([1]; 293.15 K, c1 = 1.006): 1002.49 ± 2.5 kg/m3
mass density ([1]; 293.15 K, c1 = 1.49): 1005.4 ± 2.4 kg/m3
viscosity ([1]; 298.15 K, c1 = 0.623): 1.11 ± 0.04 mPa·s
viscosity ([1]; 298.15 K, c1 = 1.006): 1.31 ± 0.04 mPa·s
viscosity ([1]; 298.15 K, c1 = 1.49): 1.62 ± 0.05 mPa·s
viscosity ([1]; 298.15 K, c1 = 1.686): 1.8 ± 0.06 mPa·s
mass density ([1]; 298.15 K, c1 = 0.623): 999.37 ± 2.5 kg/m3
mass density ([1]; 298.15 K, c1 = 1.006): 1001.3 ± 2.5 kg/m3
mass density ([1]; 298.15 K, c1 = 1.49): 1004.11 ± 2.4 kg/m3
mass density ([1]; 298.15 K, c1 = 1.686): 1005.39 ± 2.4 kg/m3
viscosity ([1]; 303.15 K, c1 = 0.623): 0.98 ± 0.03 mPa·s
viscosity ([1]; 303.15 K, c1 = 1.006): 1.15 ± 0.04 mPa·s
viscosity ([1]; 303.15 K, c1 = 1.49): 1.4 ± 0.04 mPa·s
viscosity ([1]; 303.15 K, c1 = 1.686): 1.56 ± 0.05 mPa·s
mass density ([1]; 303.15 K, c1 = 0.623): 997.94 ± 2.5 kg/m3
mass density ([1]; 303.15 K, c1 = 1.006): 999.79 ± 2.5 kg/m3
mass density ([1]; 303.15 K, c1 = 1.49): 1002.47 ± 2.4 kg/m3
mass density ([1]; 303.15 K, c1 = 1.686): 1003.66 ± 2.4 kg/m3
viscosity ([1]; 313.15 K, c1 = 0.623): 0.79 ± 0.03 mPa·s
viscosity ([1]; 313.15 K, c1 = 1.006): 0.92 ± 0.03 mPa·s
viscosity ([1]; 313.15 K, c1 = 1.49): 1.09 ± 0.03 mPa·s
viscosity ([1]; 313.15 K, c1 = 1.686): 1.2 ± 0.04 mPa·s
mass density ([1]; 313.15 K, c1 = 0.623): 994.25 ± 2.5 kg/m3
mass density ([1]; 313.15 K, c1 = 1.006): 996.03 ± 2.5 kg/m3
mass density ([1]; 313.15 K, c1 = 1.49): 998.49 ± 2.4 kg/m3
mass density ([1]; 313.15 K, c1 = 1.686): 999.49 ± 2.4 kg/m3
viscosity ([1]; 323.15 K, c1 = 0.623): 0.65 ± 0.02 mPa·s
viscosity ([1]; 323.15 K, c1 = 1.006): 0.75 ± 0.02 mPa·s
viscosity ([1]; 323.15 K, c1 = 1.49): 0.88 ± 0.03 mPa·s
viscosity ([1]; 323.15 K, c1 = 1.686): 0.96 ± 0.03 mPa·s
mass density ([1]; 323.15 K, c1 = 0.623): 989.76 ± 2.5 kg/m3
mass density ([1]; 323.15 K, c1 = 1.006): 991.53 ± 2.5 kg/m3
mass density ([1]; 323.15 K, c1 = 1.49): 993.86 ± 2.4 kg/m3
mass density ([1]; 323.15 K, c1 = 1.686): 994.74 ± 2.4 kg/m3
surface tension liquid-gas ([2]; 293.15 K, w1 = 0.043): 71.7 ± 2.1 mN/m
surface tension liquid-gas ([2]; 293.15 K, w1 = 0.086): 70.1 ± 2 mN/m
surface tension liquid-gas ([2]; 293.15 K, w1 = 0.129): 69.3 ± 1.9 mN/m
surface tension liquid-gas ([2]; 313.15 K, w1 = 0.043): 68.5 ± 2 mN/m
surface tension liquid-gas ([2]; 313.15 K, w1 = 0.086): 67.8 ± 1.9 mN/m
surface tension liquid-gas ([2]; 313.15 K, w1 = 0.129): 67.6 ± 1.9 mN/m

O [water]
surface tension liquid-gas ([3]; 293.15 K): 72.7 ± 2.2 mN/m
surface tension liquid-gas ([3]; 313.15 K): 69.8 ± 2.1 mN/m

O [water] + C1CNCCN1
surface tension liquid-gas ([2]; 293.15 K, w2 = 0): 72.7 ± 2.2 mN/m
surface tension liquid-gas ([2]; 313.15 K, w2 = 0): 69.8 ± 2.1 mN/m
